Data as given in patent US20240415819A1, “MACROCYCLIC COMPOUNDS AS PROTEASOME SUBUNIT BETA TYPE-5 INHIBITORS” (Lead Discovery Center GmbH, priority 2021, published 2024).
pIC50: −log10 of the molar value.

Key:
[1] = system: Hs 746T (human gastric carcinoma cell line); assay: 48 hr CTG viability assay, Hs 746T; format: cell-based; conditions: Hs746T, 48 hr CTG, read-out: Hs 746T IC50
Method in brief: (§1)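 Growth inhibition by compound over 48 h; IC50 (nM) derived from duplicate CellTiter-Glo luminescence readings across 0.0015–10 uM.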

[2] = system: MM1 S (B lymphoblast cell line); assay: 48 hr CTG viability assay, MM1S; format: cell-based; conditions: Homo sapiens, 48 hr CTG, read-out: MM1S IC50
Method in brief: as §1

[3] = system: A549 (human lung carcinoma cell line); assay: Glo assay of A549 cells (Table 3; ProteasomeGlo plating scheme); format: cell-based; conditions: Homo sapiens; A549 cells; read-out: PGLo A549
Method in brief: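 Luminescent read-out of cellular chymotrypsin-like proteasome activity: cells exposed to compound 105 min at 37° C., 5% CO2, then given Suc-LLVY-Glo reagent, shaken 2-5 min and kept dark 10-15 min before reading. Values are IC50 [nM].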

[4] = target: T1, β5 subunit of the human immunoproteasome (IPS) (Homo sapiens, UniProt P28062); assay: β5 inhibition assay, human immunoproteasome (Suc-LLVY-AMC); format: biochemical; conditions: IC50 class, Suc-LLVY-AMC substrate
T1 construct: purchased Boston Biochem E-370
Method in brief: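 Human immunoproteasome (1 nM final) was preincubated 10 min at RT with compound in 100 mM HEPES pH 7.5, 50 mM NaCl, 0.02% SDS, 1 mM DTT. Suc-LLVY-AMC (22.6 μM final) was then added for 4 h at RT in the dark. After stopping with 1 μM bortezomib, AMC fluorescence was read (ex 355/em 460 nm).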

[5] = system: RPMI 8226 (B lymphocyte cell line, multiple myeloma); assay: 48 hr CTG viability assay, RPMI 8226; format: cell-based; conditions: Homo sapiens, RPMI-8226; 48 hr CTG; read-out: RPMI-8226 IC50
Method in brief: as §1

[6] = system: MDA-MB-468 (breast carcinoma); assay: 48 hr CTG viability assay, MDA-MB-468; format: cell-based; conditions: Homo sapiens
Method: (§2) A viability assay was conducted for 48 hours to evaluate the inhibition of cancer cell growth by proteasome inhibitors. Briefly, the candidate cell line was plated with a 96-well plate following density of cells, respectively. 6×10^3 Cells/well for A2780 (human ovarian cancer cell line) and MDA-MB-468 (breast carcinoma), 8×10^3 Cells/well for Hs746T (human gastric carcinoma cell line), 1.1×10^4 Cells/well for MM1 S and RPMI 8226 (multiple myeloma). After 24 hours, the cells were treated with various concentrations of the compound (ranging from 0.0015 uM to 10 uM). […] After 48 hours of incubation at 37° C., 5% CO2 incubator, cells were analyzed for viability using the CellTiter-Glo Luminescent Cell Viability assay (Promega, Cat #G7570). All viability assays were performed in duplicate and Luminescence was read using an Envision (Perkin Elmer, USA). Data were analyzed using XLfit software. […] (human gastric carcinoma cell line), MM1 S (B lymphoblast cell line), and RPMI 8226 (B lymphocyte cell line, multiple myeloma). Inhibition is indicated as IC50 [nM] (“-”=not measured).

[7] = target: T2, β5 subunit of the human constitutive proteasome (CPS) (Homo sapiens, UniProt P28074); assay: β5 inhibition assay, human constitutive proteasome (Suc-LLVY-AMC); format: biochemical; conditions: IC50 class, Suc-LLVY-AMC substrate
T2 construct: purchased Boston Biochem E-360
Method: The enzymatic activity of the β5 subunit of the human constitutive proteasome (CPS) is analyzed. In another assay, which differs from the assay of the human constitutive proteasome only in using the human immunoproteasome (IPS) the enzymatic activity of the β5 subunit of the human immunoproteasome (IPS) is analyzed. […] Inhibition is indicated as IC50 [nM] (“-”=not measured).

[8] = system: A2780 (human ovarian cancer cell line); assay: 48 hr CTG viability assay, A2780; format: cell-based
Method: as §2

pIC50 [1]	pIC50 [2]	pIC50 [3]	pIC50 [4]	pIC50 [5]	pIC50 [6]	pIC50 [7]	pIC50 [8]	SMILES
> 7.00	> 7.00	> 7.00	> 7.00	> 7.00	> 7.00	> 7.00	> 7.00	Cc1ccc2cc1CNC(=O)[C@H](CCc1ccccc1)NC(=O)[C@@H](NC(=O)[C@H](C)c1ccc(N)cc1)CC(=O)N1CCCC(CCO2)C1 (stereo partly drawn) [Compound 738, (2R)-2-(4-aminophenyl)-N-((9S,12S)-5^4-methyl-8,11,14-trioxo-9-phenethyl-4-oxa-7,10-diaza-1(3,1)-piperidina-5(1,3)-benzenacyclotetradecaphane-12-yl)propanamide]
> 7.00	> 7.00	> 7.00	> 7.00	> 7.00	> 7.00	> 7.00	> 7.00	Cc1ccc2cc1CNC(=O)[C@H](CCc1ccccc1)NC(=O)[C@@H](NC(=O)[C@@H](C)c1ccc(N)cc1)CC(=O)N1CCCC(CCO2)C1 (stereo partly drawn) [Compound 634, (2S)-2-(4-aminophenyl)-N-((9S,12S)-5^4-methyl-8,11,14-trioxo-9-phenethyl-4-oxa-7,10-diaza-1(3,1)-piperidina-5(1,3)-benzenacyclotetradecaphane-12-yl)propanamide]
